Experimental data published in ChEMBL document CHEMBL1145705, “Flavonoids as inhibitors or enhancers of the cytotoxicity of tumor necrosis factor-alpha in L-929 tumor cells” (J Nat Prod, 1997).
Activity calls are given as the source filed them. The calls are words filed in the database; no cut-off is given here.

Columns and labels:
L929 [1] = assay: Potentiation of recombinant human TNF-alpha-induced cytotoxicity of mouse L929 cells assessed as survivality preincubated for 15 mins before TNFalpha addition measured after 24 hrs by crystal violet staining; assay type: functional, cell-based
L929 [2] = assay: Potentiation of recombinant human TNF-alpha-induced cytotoxicity of mouse L929 cells assessed as survivality preincubated for 15 mins before TNFalpha addition measured after 24 hrs by [methyl-3H]thymidine incorporation assay; assay type: functional, cell-based
L929 [3] = assay: Inhibition of recombinant human TNF-alpha-induced cytotoxicity of mouse L929 cells assessed as survivality preincubated for 15 mins before TNFalpha addition measured after 24 hrs by crystal violet staining; assay type: functional, cell-based
L929 [4] = assay: Inhibition of recombinant human TNF-alpha-induced cytotoxicity of mouse L929 cells assessed as survivality preincubated for 15 mins before TNFalpha addition measured after 24 hrs by [methyl-3H]thymidine incorporation assay; assay type: functional, cell-based
L929 [5] = assay: Inhibition of recombinant human TNF-alpha-induced cytotoxicity of mouse L929 cells assessed as survivality treated with drug after 2 hrs of TNFalpha treatment; assay type: functional, cell-based
L929 [6] = assay: Potentiation of recombinant human TNF-alpha-induced cytotoxicity of mouse L929 cells assessed as survivality treated with drug after 2 hrs of TNFalpha treatment; assay type: functional, cell-based
L929 [7] = assay: Potentiation of recombinant human TNF-alpha-induced cytotoxicity of mouse L929 cells assessed as survivality at 250 uM preincubated for 15 mins before TNFalpha addition measured after 24 hrs by crystal violet staining; assay type: functional
L929 [8] = assay: Potentiation of recombinant human TNF-alpha-induced cytotoxicity of mouse L929 cells assessed as survivality at 250 uM preincubated for 15 mins before TNFalpha addition measured after 24 hrs by [methyl-3H]thymidine incorporation assay; assay type: functional
L929 [9] = assay: Cytotoxicity against mouse L929 cells at 1 uM preincubated for 15 mins before TNFalpha addition measured after 24 hrs by crystal violet staining; assay type: cell-based; details: l929, 24 h
L929 [10] = assay: Cytotoxicity against mouse L929 cells at 1 uM preincubated for 15 mins before TNFalpha addition measured after 24 hrs by [methyl-3H]thymidine incorporation assay; assay type: cell-based; details: l929, 24 h

## O=c1cc(-c2ccc(O)cc2)oc2cc(O)cc(O)c12
L929 [1]
  Activity: Active
L929 [2]
  Activity: Active

## O=c1cc(-c2ccccc2)oc2cc(O)cc(O)c12
L929 [1]
  Activity: Active
L929 [2]
  Activity: Active

## O=C1c2c(O)cc(O)cc2O[C@H](c2ccc(O)c(O)c2)[C@H]1O [(+)-TAXIFOLIN]
L929 [3]
  EC50: 200 µM
L929 [4]
  EC50: 240 µM

## Oc1cc(O)c2c(c1)O[C@H](c1ccc(O)c(O)c1)[C@H](O)C2 [(-)-EPICATECHIN]
L929 [3]
  EC50: 300 µM
L929 [4]
  EC50: 350 µM

## O=C1C[C@@H](c2ccc(O)c(O)c2)Oc2cc(O)cc(O)c21 [ERIODICTYOL]
L929 [3]
  EC50: 4 µM
L929 [4]
  EC50: 6 µM

## O=c1c(O)c(-c2ccccc2)oc2cc(O)cc(O)c12 [GALANGIN]
L929 [5]
  Activity: Active
L929 [6]
  Activity: Active
L929 [3]
  Activity: Dose-dependent effect
  EC50: 40 µM
L929 [4]
  EC50: 50 µM

## COc1ccc(-c2oc3cc(O)cc(O)c3c(=O)c2O)cc1 [KAEMPFERIDE]
L929 [5]
  Activity: Active
L929 [6]
  Activity: Active
L929 [3]
  Activity: Dose-dependent effect
  EC50: 129 µM
L929 [4]
  EC50: 140 µM

## O=c1c(O)c(-c2ccc(O)cc2)oc2cc(O)cc(O)c12 [KAEMPFEROL]
L929 [5]
  Activity: Active
L929 [6]
  Activity: Active
L929 [3]
  Activity: Dose-dependent effect
  EC50: 20 µM
L929 [4]
  EC50: 25 µM

## O=c1cc(-c2ccc(O)c(O)c2)oc2cc(O)cc(O)c12 [LUTEOLIN]
L929 [3]
  EC50: > 250 µM
L929 [4]
  EC50: > 250 µM

## O=c1c(O)c(-c2ccc(O)cc2O)oc2cc(O)cc(O)c12 [MORIN]
L929 [5]
  Activity: Active
L929 [6]
  Activity: Active
L929 [3]
  Activity: Dose-dependent effect
  EC50: 120 µM
L929 [4]
  EC50: 115 µM

## O=c1c(O)c(-c2cc(O)c(O)c(O)c2)oc2cc(O)cc(O)c12 [MYRICETIN]
L929 [5]
  Activity: Active
L929 [6]
  Activity: Active
L929 [3]
  Activity: Dose-dependent effect
  EC50: 55 µM
L929 [4]
  EC50: 59 µM

## O=C1C[C@@H](c2ccc(O)cc2)Oc2cc(O)cc(O)c21 [NARINGENIN]
L929 [7]
  Activity: 25%
L929 [8]
  Activity: 31%
L929 [1]
  Activity: Active
L929 [2]
  Activity: Active

## CC(Cc1ccc(O)c(O)c1)C(C)Cc1ccc(O)c(O)c1 (configuration not stated) [NORDIHYDROGUAIARETIC ACID]
L929 [3]
  EC50: 28 µM
L929 [4]
  EC50: 19 µM

## O=c1c(O)c(-c2ccc(O)c(O)c2)oc2cc(O)cc(O)c12 [QUERCETIN]
L929 [5]
  Activity: Active
L929 [6]
  Activity: Active
L929 [3]
  Activity: Dose-dependent effect
  EC50: 20 µM
L929 [4]
  EC50: 26 µM

## C[C@@H]1O[C@@H](OC[C@H]2O[C@@H](Oc3c(-c4ccc(O)c(O)c4)oc4cc(O)cc(O)c4c3=O)[C@H](O)[C@@H](O)[C@@H]2O)[C@H](O)[C@H](O)[C@H]1O [RUTIN]
L929 [5]
  Activity: Active
L929 [6]
  Activity: Active
L929 [3]
  Activity: Dose-dependent effect
  EC50: 250 µM
L929 [4]
  EC50: > 250 µM

## CN[C@@H]1C[C@H]2O[C@@](C)([C@@H]1OC)n1c3ccccc3c3c4c(c5c6ccccc6n2c5c31)C(=O)NC4 [STAUROSPORINE]
L929 [9]
  Activity: Toxic
L929 [10]
  Activity: Toxic
L929 [1]
  Activity: Dose-dependent effect
L929 [2]
  Activity: Dose-dependent effect
